# Source: patent US20180221306A1, “PHARMACEUTICAL COMPOSITIONS OF 5-HYDROXY-2-METHYLNAPHTHALENE-1,4-DIONE” (PellFiCure Pharmaceuticals, Inc., priority 2016, published 2018)
# Marks after values point to notes of the source that are not given here.
# How the values were obtained:
# Sprague Dawley rats = test: 7-day dose range-finding study; format: in vivo, rat
# Experimental: A single-dose maximum tolerated dose (MTD) phase A study and a 7-day dose range-finding (DRF) phase B study were conducted in Sprague Dawley rats by MPI Research, Inc. (Mattawan, Mich.). A total of 62 males and 62 females rats were assigned to the study, which was performed in accordance with all current regulations. Animals were housed in standard conditions and had ad libitum access to food and water. Healthy animals of each sex were randomized into treatment groups using a standard, by weight, measured value randomization procedure. Compound I was administered by oral gavage, once at each dose level in Phase A (acute), or once daily for 7 consecutive days in Phase B. Oral gavage was chosen because the oral route is the intended route of administration in humans. Animals were observed twice daily for morbidity and mortality and were euthanatized for humane reasons where appropriate. An initial starting dose of 50 mg/kg was used for Phase A. Subsequent doses were increased or decreased based on the response to the preceding dose. […] The dose levels used in Phase B were based on the MTD identified in Phase A.
# Daily doses of 0 (vehicle), 10, 30 and 100 mg/kg were then administered to Sprague Dawley rats by oral gavage for seven days for the dose-range finding study. […] Adverse events included decreased body weight or decreased body weight gain, decreased food consumption, adverse effects on various pathological parameters and Compound I-related macroscopic and microscopic abnormalities in multiple organs. […] The toxicity profile of Compound I is encouraging considering that the drug is effective in rodents at much lower doses. This toxicity-to-effectiveness dose ratio provides, potentially, a wide therapeutic window.
# [1] = Forced degradation: stability of Compound I formulations in selected solvents and Carrier A (HPLC)
# [2] = 10% HPβCD, 25° C./60% RH, t = 2 week
smiles,measurement,setting,value
"CC1=CC(=O)c2c(O)cccc2C1=O [Compound I, 5-hydroxy-2-methylnaphthalene-1,4-dione]",Stability of formulations of Compound I in PEG,5 mg/g,50%
same,"Stability of the formulation in Carrier A (sesame oil), Potency as Amount","3 day, 4.6 mg/mL",4200 µg/mL
same,Toxicity observed in rats,Sprague Dawley rats; 10 mg/kg/day,Very little toxicity
same,Compound I-related effects,Sprague Dawley rats; 10 mg/kg/day low-dose level,limited to minimal changes noted in the teeth of one male
same,Microscopic findings,"Sprague Dawley rats; 30 mg/kg/day, both sexes",Minimal to mild non-adverse microscopic abnormalities in various organs
same,Clinical chemistry findings,"Sprague Dawley rats; 30 mg/kg/day, oral gavage, seven days",minimal increases in mean serum total bilirubin concentration and alkaline phosphatase activity
same,Morbidity/mortality,"Sprague Dawley rats; 100 mg/kg/day, beginning on day 3, early termination of all animals on Day 5",Morbidity/mortality occurred both in male and female rats
same,"Solution Stability in Selected Solvents, Purity","[1]; 1% TW20, 25° C./60% RH, t = 0",97.00 % Area
same,"Solution Stability in Selected Solvents, Purity","[1]; 1% TW20, 25° C./60% RH, t = 1 week, precipitation observed",64.23^‡ % Area
same,"Solution Stability in Selected Solvents, Purity","[1]; 1% TW20, 25° C./60% RH, t = 2 week, precipitation observed",50.47^‡ % Area
same,"Solution Stability in Selected Solvents, Purity","[1]; 1% TW20, 40° C./75% RH, t = 1 week, precipitation observed",47.19^‡ % Area
same,"Solution Stability in Selected Solvents, Purity","[1]; 1% TW20, 40° C./75% RH, t = 2 week, precipitation observed",41.25^‡ % Area
same,"Solution Stability in Selected Solvents, Purity","[1]; 1% TW80, 25° C./60% RH, t = 0",95.11 % Area
same,"Solution Stability in Selected Solvents, Purity","[1]; 1% TW80, 25° C./60% RH, t = 1 week, precipitation observed",57.32^‡ % Area
same,"Solution Stability in Selected Solvents, Purity","[1]; 1% TW80, 25° C./60% RH, t = 2 week, precipitation observed",47.62^‡ % Area
same,"Solution Stability in Selected Solvents, Purity","[1]; 1% TW80, 40° C./75% RH, t = 1 week, precipitation observed",42.07^‡ % Area
same,"Solution Stability in Selected Solvents, Purity","[1]; 1% TW80, 40° C./75% RH, t = 2 week, precipitation observed",40.53^‡ % Area
same,"Solution Stability in Selected Solvents, Purity","[1]; 10% HPβCD, 25° C./60% RH, t = 0",99.49 % Area
same,"Solution Stability in Selected Solvents, Purity","[1]; 10% HPβCD, 25° C./60% RH, t = 1 week",97.41 % Area
same,"Solution Stability in Selected Solvents, % Potency",[1]; [2],91.09%
same,"Solution Stability in Selected Solvents, Purity",[1]; [2],94.73 % Area
same,"Solution Stability in Selected Solvents, Purity","[1]; 10% HPβCD, 40° C./75% RH, t = 1 week",91.22 % Area
same,"Solution Stability in Selected Solvents, Purity","[1]; 10% HPβCD, 40° C./75% RH, t = 2 week",87.69 % Area
same,"Solution Stability in Selected Solvents, Purity","[1]; ACN, 25° C./60% RH, t = 0",95.56 % Area
same,"Solution Stability in Selected Solvents, Purity","[1]; ACN, 25° C./60% RH, t = 1 week",93.35 % Area
same,"Solution Stability in Selected Solvents, Purity","[1]; ACN, 25° C./60% RH, t = 2 week",91.03 % Area
same,"Solution Stability in Selected Solvents, Purity","[1]; ACN, 40° C./75% RH, t = 1 week",93.33 % Area
same,"Solution Stability in Selected Solvents, Purity","[1]; ACN, 40° C./75% RH, t = 2 week",93.59 % Area
same,"Solution Stability in Selected Solvents, Purity","[1]; Acetone, 25° C./60% RH, t = 0",94.35 % Area
same,"Solution Stability in Selected Solvents, Purity","[1]; Acetone, 25° C./60% RH, t = 1 week",93.49 % Area
same,"Solution Stability in Selected Solvents, Purity","[1]; Acetone, 25° C./60% RH, t = 2 week",92.27 % Area
same,"Solution Stability in Selected Solvents, Purity","[1]; Acetone, 40° C./75% RH, t = 1 week",91.94 % Area
same,"Solution Stability in Selected Solvents, Purity","[1]; Acetone, 40° C./75% RH, t = 2 week",91.52 % Area
same,"Stability of the formulation in Carrier A (sesame oil), Purity","[1]; Carrier A (NF), 25° C./60% RH, t = 3 day",99.2 Area - %
same,"Stability of the formulation in Carrier A (sesame oil), Purity","[1]; Carrier A (NF), 25° C./60% RH, t = 10 day",99.4 Area - %
same,"Stability of the formulation in Carrier A (sesame oil), Purity","[1]; Carrier A (NF), 40° C./75% RH, t = 3 day",98.9 Area - %
same,"Stability of the formulation in Carrier A (sesame oil), Purity","[1]; Carrier A (NF), 40° C./75% RH, t = 10 day",99.2 Area - %
same,"Stability of the formulation in Carrier A (sesame oil), Purity","[1]; Carrier A (NF: laboratory grade), t = 0, reported from a representative standard",99.7 Area - %
same,"Stability of the formulation in Carrier A (sesame oil), Purity","[1]; Carrier A (SR), 25° C./60% RH, t = 3 day",99.5 Area - %
same,"Stability of the formulation in Carrier A (sesame oil), Purity","[1]; Carrier A (SR), 25° C./60% RH, t = 10 day",99.5 Area - %
same,"Stability of the formulation in Carrier A (sesame oil), Purity","[1]; Carrier A (SR), 40° C./75% RH, t = 3 day",99.3 Area - %
same,"Stability of the formulation in Carrier A (sesame oil), Purity","[1]; Carrier A (SR), 40° C./75% RH, t = 10 day",99.3 Area - %
same,"Stability of the formulation in Carrier A (sesame oil), Purity","[1]; Carrier A (SR: super refined grade), t = 0, reported from a representative standard",99.7 Area - %
same,"Solution Stability in Selected Solvents, Purity","[1]; DCM, 25° C./60% RH, t = 0",92.84 % Area
same,"Solution Stability in Selected Solvents, Purity","[1]; DCM, 25° C./60% RH, t = 1 week",93.85 % Area
same,"Solution Stability in Selected Solvents, Purity","[1]; DCM, 25° C./60% RH, t = 2 week",92.99 % Area
same,"Solution Stability in Selected Solvents, Purity","[1]; DCM, 40° C./75% RH, t = 1 week",91.88 % Area
same,"Solution Stability in Selected Solvents, Purity","[1]; DCM, 40° C./75% RH, t = 2 week",81.23 % Area
same,"Solution Stability in Selected Solvents, Purity","[1]; DMSO, 25° C./60% RH, t = 0",94.08 % Area
same,"Solution Stability in Selected Solvents, Purity","[1]; DMSO, 25° C./60% RH, t = 1 week",93.47 % Area
